Assay [1] has as its target T1, vascular endothelial growth factor (VEGF) (Homo sapiens, UniProt P15692).
T1 sequence (P15692 27-191 isoform P15692-4): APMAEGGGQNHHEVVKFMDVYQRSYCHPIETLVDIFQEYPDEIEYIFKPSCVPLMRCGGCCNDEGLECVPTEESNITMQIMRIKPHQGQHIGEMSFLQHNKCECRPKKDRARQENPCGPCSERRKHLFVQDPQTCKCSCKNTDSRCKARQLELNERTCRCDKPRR
The assay is described as follows: ELISA for determination of binding of VEGF to heparin. The settings on record: for IC50: inhibition of VEGF binding to heparin, NI = no inhibition; for inhibition of VEGF binding to heparin: inhibition towards both growth factors. The method, then:
Enzyme-linked immunosorbent assay (ELISA) for determination of binding of vascular endothelial growth factor (VEGF) to heparin: 96-well microplates were coated for 2 hours. at 23-25° C. with 5 μg/ml heparin-albumin (Rimon Biotech) and blocked with 1% bovine serum albumin (BSA) in phosphate buffer (PBS) with 0.05% Tween and 0.01% thimerosal for 2 hours. VEGF was added to the plates at a concentration of 10 ng/ml and the plates were thereafter incubated for 45 minutes at 23-25° C. The amount of VEGF bound to heparin was detected using anti-VEGF monoclonal antibody (Sigma Cat. No. V4758) at a concentration of 0.26 μg/ml and secondary antibodies Sheep anti-mouse IgG linked to horseradish peroxidase (1:2000) using 3,3′,5,5′-tetramethylbenzidine (TMB, Pierce Cat. No. 34021) as a substrate for peroxidase. The plates were read at 450 nm with a reference wavelength of 630 nm using a VERSAmax plate reader. […] Percent inhibition was calculated as compared with a control pre-incubated with a solution of 1% DMSO and the results are presented in Table 3 below.
(ELISA stands for enzyme-linked immunosorbent assay.)

Assay [2] addresses T2, recombinant human pro-heparanase (H60) (Homo sapiens, UniProt Q9Y251).
T2 construct: Heparanase maturation involves the removal of the signal peptide, transforming the 65 kDa pre-pro-heparanase into a 60 kDa pro-heparanase; made in house
T2 sequence (Q9Y251 36-543): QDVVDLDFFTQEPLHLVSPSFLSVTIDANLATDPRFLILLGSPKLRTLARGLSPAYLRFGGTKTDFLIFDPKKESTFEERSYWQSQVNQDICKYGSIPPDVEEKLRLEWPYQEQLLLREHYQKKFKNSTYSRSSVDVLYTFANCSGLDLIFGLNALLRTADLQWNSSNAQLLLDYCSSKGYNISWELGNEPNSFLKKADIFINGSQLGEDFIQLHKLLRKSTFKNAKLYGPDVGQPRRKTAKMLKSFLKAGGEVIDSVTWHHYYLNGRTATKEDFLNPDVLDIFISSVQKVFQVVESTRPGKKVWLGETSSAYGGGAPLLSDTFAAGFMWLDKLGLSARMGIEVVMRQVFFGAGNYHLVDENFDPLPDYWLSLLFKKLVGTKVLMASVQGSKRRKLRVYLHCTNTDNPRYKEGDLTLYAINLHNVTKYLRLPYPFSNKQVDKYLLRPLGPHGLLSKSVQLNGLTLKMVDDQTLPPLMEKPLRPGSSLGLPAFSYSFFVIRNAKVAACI
The assay is described as follows: Pro-heparanase (H60) activation in a cell-based assay. The settings on record: inhibition of pro-heparanase activation in CHO cells; NI = no inhibition. How it is done:
Pro-heparanase (H60) activation in a cell-based assay: Chinese hamster ovary (CHO) cells were grown in complete F12 medium supplemented with 10% fetal calf serum (FCS). […] The plates were incubated for 24 hours in a 37° C. humidified incubator with 5% CO2. […] The plates were further incubated for additional 4 hours. The pro-heparanase was allowed to internalize by the cells and further processed to generate the active 53 kDa heparanase. At the end of the incubation, the cells were lysed by three consecutive cycles of freezing and thawing in a −80° C. freezer and a 37° C. shaker.
The rigidified compounds described herein were tested for inhibition of pro-heparanase activation in the cell-based assay described above.

Assay [3] concerns the target β-FGF (Homo sapiens, UniProt P09038). The assay can be described thus: ELISA for determination of binding of β-FGF to heparin. The settings on record: for IC50: inhibition of β-FGF binding to heparin, NI = no inhibition; for inhibition of β-FGF binding to heparin: inhibition towards both growth factors. The method, then: ELISA for determination of binding of β-FGF to heparin: 96-well microplates were coated for 2 hours at 23-25° C. with 5 μg/ml heparin-albumin (Rimon Biotech) and blocked with 1% BSA in PBS, with 0.05% Tween, and 0.01% thimerosal for 2 hours. β-FGF was added to the plates at a concentration of 10 ng/ml and plates were incubated for 45 minutes at 23-25° C. The amount of β-FGF bound to heparin was detected using anti-FGF monoclonal antibody (Sigma Cat. No. F6162) at a concentration of 2.5 ng/ml and secondary antibodies Sheep anti-mouse IgG linked to horseradish peroxidase (1:3000) TMB (Pierce Cat. No. 34021) was used as a substrate for peroxidase. The plates were read at 450 nm with a reference wavelength of 630 nm using a VERSAmax plate reader.

The target of assay [4] is T3, heparanase (H53) (Homo sapiens, UniProt Q9Y251).
T3 construct: The 45 kDa major subunit and the 8 kDa small subunit hetero-complex to form the 53 kDa active form of heparanase
T3 sequence (Q9Y251 36-109 limits assumed): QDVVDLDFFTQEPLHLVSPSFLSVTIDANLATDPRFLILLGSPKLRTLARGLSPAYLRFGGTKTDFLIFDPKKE
T3 sequence (Q9Y251 158-543 limits assumed): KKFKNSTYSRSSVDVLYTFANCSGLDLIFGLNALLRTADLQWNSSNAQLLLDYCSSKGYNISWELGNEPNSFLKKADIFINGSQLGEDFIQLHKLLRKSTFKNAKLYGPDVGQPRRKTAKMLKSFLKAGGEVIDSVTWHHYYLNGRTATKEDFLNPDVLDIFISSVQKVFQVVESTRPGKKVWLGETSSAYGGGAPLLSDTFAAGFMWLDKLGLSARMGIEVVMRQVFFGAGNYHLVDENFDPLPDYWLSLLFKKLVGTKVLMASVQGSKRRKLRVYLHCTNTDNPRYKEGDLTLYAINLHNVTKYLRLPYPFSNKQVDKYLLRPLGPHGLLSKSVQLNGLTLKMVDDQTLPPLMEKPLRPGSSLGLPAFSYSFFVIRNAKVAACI
The assay is described as follows: Heparanase (H53) assay (DMB assay). The class given is biochemical. The settings on record: for dual activity: inhibition of pro-heparanase activation (H60) and of heparanase activity (H53): compounds with an acidic group; for IC50: inhibition of heparanase activity, DMB assay, NI = no inhibition. How it is done:
Heparanase (H53) assay: The rigidified compounds described herein were tested for inhibition of heparanase activity in the DMB assay described in U.S. Pat. No. 6,190,875. IC50 was calculated from inhibition curves of all active compounds.

In assay [5] the test system is MDA-MB231 breast cancer cells. The assay is described as follows: In-vitro assay for inhibition of cell invasion (MDA-MB231). The settings on record: Homo sapiens; MB231 cells (first value of cell); read-out: IC50 Invasion MB231/PC3/A375. It is filed as cell-based. The method, then: In-vitro assay for inhibition of cell invasion: The ability of the rigidified compounds described herein to inhibit cell invasion was determined quantitatively using BD Biocoat FluoroBlok Invasion System (BD, cat No. FAL354165). MDA-MB231 breast cancer cells, human prostatic cancer PC3 cells and A375 melanoma cells were used for this assay. Cells (5×10^4 cells/ml) were pre-incubated with the compounds for 48 hours prior to the assay, at 37° C. and a 5% CO2 atmosphere.
Serial dilutions of each compound starting from a concentration which was previously found to be non-toxic to the cells (using Oxygen Biosensor System, BD), were prepared in DMSO and added to the cells to a final concentration of 1% DMSO. At the end of the pre-incubation, cells at each compound concentration were counted and 2×10^4 cells/well in basic medium were applied onto the top chamber of the insert of the Invasion system. 750 μl complete medium with 5% fetal calf serum was added to the bottom chambers. The tested compound was applied to the top and bottom chambers. Invasion plates were incubated for 22 hours at 37° C. and a 5% CO2 atmosphere.
At the end of the incubation, medium was aspirated from the upper chambers and the inserts were transferred to a plate containing Calcein AM (Molecular Probes), 4 μg/ml and incubated for 90 minutes at 37° C. and a 5% CO2 atmosphere.
Fluorescence of invaded cells was read in a fluorescence plate reader BMG POLARstar Galaxy, BMG at excitation/emission wavelength of 485/530 nm.

Ten molecules from patent US7795255B2, “Rigidified compounds for modulating heparanase activity” (InSight Biopharmaceuticals Ltd., priority 2005, dated 2010) can be followed below.

SMILES strings stand for the structures.

Chain of β-FGF (P09038 143-288): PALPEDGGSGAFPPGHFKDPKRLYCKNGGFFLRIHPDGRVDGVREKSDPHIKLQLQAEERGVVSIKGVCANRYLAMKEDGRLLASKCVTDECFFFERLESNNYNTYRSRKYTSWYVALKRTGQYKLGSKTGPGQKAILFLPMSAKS

On to `O=C(O)CCCN1C(=O)c2cc3oc(-c4ccc(Cl)cc4)cc3n2C1=S` [Compound 5, 4-[2-(4-chloro-phenyl)-6-oxo-4-thioxo-6H-1-oxa-3b,5-diaza-cyclopenta[a]pentalen-5-yl]-butyric acid], for which the IC50 in assay [1] came to 6000 nM; in assay [2] it was 1000 nM; in assay [3], 2100 nM; in assay [4], 11800 nM. Moreover, the “dual activity: inhibition of pro-heparanase activation (H60) and of heparanase activity (H53)” value (“dual activity: inhibition” for short) in assay [4] is reported as “dual activity”.

For `CCN(CC)C(=O)CCCN1C(=O)c2cc3oc(-c4ccc(Cl)cc4)cc3n2C1=S` [Compound 6, 4-[2-(4-chloro-phenyl)-6-oxo-4-thioxo-6H-1-oxa-3b,5-diaza-cyclopenta[a]pentalen-5-yl]-N,N-diethyl-butyramide], the IC50 in assay [1] was 160 nM; in assay [2], 1200 nM; in assay [3], 150 nM; in assay [5], 170 nM. In addition, the “inhibition of VEGF binding to heparin” value in assay [1] was “sub-micromolar”. Further, the “inhibition of β-FGF binding to heparin” value in assay [3] is on record as “sub-micromolar”.

With `CN1CCN(C(=O)CC(C)(C)CN2C(=O)c3cc4oc(-c5ccc(Cl)cc5)cc4n3C2=S)CC1` [Compound 16, 2-(4-Chloro-phenyl)-5-[2,2-dimethyl-4-(4-methyl-piperazin-1-yl)-4-oxo-butyl]-4-thioxo-4,5-dihydro-1-oxa-3b,5-diaza-cyclopenta[a]pentalen-6-one], the IC50 worked out at 290 nM in assay [1], 90 nM in assay [2], 200 nM in assay [3] and 35 nM in assay [5]. Further, in assay [1], the “inhibition of VEGF binding to heparin” value is given as “sub-micromolar”. The “inhibition of β-FGF binding to heparin” value in assay [3] is recorded as “sub-micromolar”.

Turning to `CN(CC(=O)O)C(=O)CC(C)(C)CN1C(=O)c2cc3oc(-c4ccc(Cl)cc4)cc3n2C1=S` [Compound 21, ({4-[2-(4-Chloro-phenyl)-6-oxo-4-thioxo-6H-1-oxa-3b,5-diaza-cyclopenta[a]pentalen-5-yl]-3,3-dimethyl-butyryl}-methyl-amino)-acetic acid], the IC50 in assay [1] was found to be 7300 nM; in assay [2], 1000 nM; in assay [3] it was 6500 nM; in assay [4], 66200 nM. Also, in assay [4], the “dual activity: inhibition” value was “dual activity”.

Turning to `CC(C)(CC(=O)N1CCC[C@@H]1C(=O)O)CN1C(=O)c2cc3oc(-c4ccc(Cl)cc4)cc3n2C1=S` [Compound 23, 1-{4-[2-(4-Chloro-phenyl)-6-oxo-4-thioxo-6H-1-oxa-3b,5-diaza-cyclopenta[a]pentalen-5-yl]-3,3-dimethyl-butyryl}-pyrrolidine-2-carboxylic acid], the IC50 is 9300 nM in assay [1], 820 nM in assay [2] and 7900 nM in assay [3]. In addition, in assay [4], the “dual activity: inhibition” value is on record as “dual activity”.

On to `O=C(O)CCCN1C(=O)c2cc3oc(-c4cccc(C(F)(F)F)c4)cc3n2C1=S` [Compound 26], for which the IC50 in assay [1] stood at 4800 nM; in assay [2], 780 nM; in assay [3], 1700 nM; in assay [4], 10200 nM.

Consider `COCCCN1C(=O)c2cc3oc(-c4ccc(Cl)cc4)cc3n2C1=S` [Compound 28, 2-(4-Chloro-phenyl)-5-(3-methoxy-propyl)-4-thioxo-4,5-dihydro-1-oxa-3b,5-diaza-cyclopenta[a]pentalen-6-one], for which, in assay [1], the IC50 is 170 nM and the “inhibition of VEGF binding to heparin” value is recorded as “sub-micromolar”. In addition, the IC50 in assay [2] was 6600 nM. Further, in assay [3], the IC50 came out at 20 nM and the “inhibition of β-FGF binding to heparin” value is listed as “sub-micromolar”.

On to `Cc1c(N2C(=O)c3cc4oc(-c5ccc(Cl)cc5)cc4n3C2=S)c(=O)n(-c2ccccc2)n1C` [Compound 29, 2-(4-chloro-phenyl)-5-(1,5-dimethyl-3-oxo-2-phenyl-2,3-dihydro-1H-pyrazol-4-yl)-4-thioxo-4,5-dihydro-1-oxa-3b,5-diaza-cyclopenta[a]pentalen-6-one], for which the IC50 amounted to 480 nM in assay [1], 370 nM in assay [2] and 810 nM in assay [3]. Further, in assay [1], the “inhibition of VEGF binding to heparin” value is “sub-micromolar”. In addition, the “inhibition of β-FGF binding to heparin” value in assay [3] is recorded as “sub-micromolar”.

As to `CCOC(=O)CCCN1C(=O)c2cc3sc(-c4ccc([N+](=O)[O-])cc4)cc3n2C1=S` [Compound 31, 4-[2-(4-nitro-phenyl)-6-oxo-4-thioxo-6H-1-thia-3b,5-diaza-cyclopenta[a]pentalen-5-yl]-butyric acid ethyl ester], the IC50 in assay [1] was 70 nM; in assay [2] it was 560 nM; in assay [3], 280 nM; in assay [4], 74000 nM. Further, the “inhibition of VEGF binding to heparin” value in assay [1] is given as “sub-micromolar”. In assay [3], the “inhibition of β-FGF binding to heparin” value is on record as “sub-micromolar”.

As for `O=C(O)CCCN1C(=O)c2cc3sc(-c4ccc([N+](=O)[O-])cc4)cc3n2C1=S` [Compound 32, 4-[2-(4-Nitro-phenyl)-6-oxo-4-thioxo-6H-1-thia-3b,5-diaza-cyclopenta[a]pentalen-5-yl]-butyric acid], the IC50 in assay [2] was 700 nM; in assay [4], 27000 nM.
